The values that follow come from US20060083738A1, “Treatment of cancer by the use of anti fas antibody” (FUSION ANTIBODIES LIMITED, priority 2002, published 2006).

Holding throughout (format): cell-based
For assay [1], the system named is Fas. Description: Fas expression in response to 5FU treatment, MCF-7. The note with it: MCF-7 breast cancer cell line. From the text:
(§1) FIG. 1 illustrates FAS/CD95 expression in response to 5-FU and tomudex (TDX).
(§2) Moreover, procaspase 8 and BID cleavage are not observed in cells treated with either 5PU or anti-Fas monoclonal antibody alone. However, both are activated following co-treatment with 5FU and anti-Fas monoclonal antibody (indicated by loss of full-length procaspase 8 and BID).

Assay [2] concerns Fas. Description: Fas expression in response to 5FU treatment, HCT116. The following applies: HCT116 colorectal cancer cell line.
From the text: as §1, §2

Assay [3] deals with procaspase 8, BID, c-FLIP, FasL. Description: Expression and activation of apoptosis regulating proteins in drug-treated cells. As to the method: FIG. 2 illustrates expression of apoptosis regulating proteins in MCF-7 cells 72 hours after treatment with 10 μM 5-FU or 100 nM TDX.
as §2

In a further assay the test system is Fas / FasL interaction. The assay can be described thus: Immunoprecipitation of Fas receptor and FasL. The note with it: 5FU treatment, FIG. 1B.

In the case of `O=c1[nH]cc(F)c(=O)[nH]1` [5FU, 5-Fluorouracil], the “up-regulation of Fas expression” value in the assay with Fas [1] and in the assay on Fas [2] was greater than 10 fold in each case. Moreover, the FasL expression result in assay [3] (5FU treatment) is “unaffected”. The “activation of procaspase 8 or BID” value in assay [3] (5FU-treated MCF-7 and HCT116 cells, FIG. 1A) is “does not result in activation of procaspase 8 or BID”. For the same molecule, the c-FLIP expression entry in assay [3] (5FU-treated cells or co-treated cells) is reported as “up-regulated”. In addition, the “procaspase 8 and BID cleavage” value in assay [3] (single agent or co-treatment, loss of full-length procaspase 8 and BID) is recorded as “not observed”. The “interaction between receptor (Fas) and ligand (FasL)” value in the assay on Fas / FasL interaction is “up-regulated”.
